Results on 24 compounds are retold here after patent US20250163022A1, “PARP1 INHIBITORS” (Synnovation Therapeutics, Inc., priority 2021, published 2025).

Structures are written as SMILES.

The target in the assay is T1, PARP1 (Homo sapiens, UniProt P09874).
T1 construct: HeLa cells (wide-type with PARP1 gene) were purchased from ATCC; host or cells: HeLa (wild type)
T1 sequence (P09874 whole entry): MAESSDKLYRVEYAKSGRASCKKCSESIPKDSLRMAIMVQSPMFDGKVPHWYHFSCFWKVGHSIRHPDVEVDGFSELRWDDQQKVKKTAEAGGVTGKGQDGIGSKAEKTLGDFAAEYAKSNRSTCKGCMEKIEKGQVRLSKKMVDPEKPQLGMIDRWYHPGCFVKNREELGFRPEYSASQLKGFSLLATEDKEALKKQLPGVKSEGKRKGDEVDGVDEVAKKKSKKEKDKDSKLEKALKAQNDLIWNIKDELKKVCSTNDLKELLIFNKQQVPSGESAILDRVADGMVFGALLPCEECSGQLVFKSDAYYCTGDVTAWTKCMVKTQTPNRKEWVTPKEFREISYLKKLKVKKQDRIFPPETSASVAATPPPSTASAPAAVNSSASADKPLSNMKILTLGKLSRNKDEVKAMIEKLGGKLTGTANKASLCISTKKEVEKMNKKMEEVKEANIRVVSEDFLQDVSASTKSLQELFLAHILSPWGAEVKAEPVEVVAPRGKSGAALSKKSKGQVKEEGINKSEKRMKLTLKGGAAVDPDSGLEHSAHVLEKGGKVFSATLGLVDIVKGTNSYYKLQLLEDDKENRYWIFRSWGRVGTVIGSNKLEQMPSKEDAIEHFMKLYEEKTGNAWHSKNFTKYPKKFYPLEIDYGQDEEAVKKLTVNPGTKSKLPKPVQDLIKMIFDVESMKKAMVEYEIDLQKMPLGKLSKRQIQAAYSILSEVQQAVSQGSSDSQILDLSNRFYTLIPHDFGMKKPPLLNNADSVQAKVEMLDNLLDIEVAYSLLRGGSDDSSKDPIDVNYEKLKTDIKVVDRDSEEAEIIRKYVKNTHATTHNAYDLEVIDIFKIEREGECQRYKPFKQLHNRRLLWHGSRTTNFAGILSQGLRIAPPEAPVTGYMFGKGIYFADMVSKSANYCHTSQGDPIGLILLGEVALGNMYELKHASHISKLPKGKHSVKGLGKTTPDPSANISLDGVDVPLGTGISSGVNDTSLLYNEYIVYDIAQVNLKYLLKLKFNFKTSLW
As to the kind of experiment: In-Cell Western measurement of PARylation in PARP1 WT and knockout cells. The class given is cell-based. The note with it: HeLa cells (wide-type with PARP1 gene); hydrogen peroxide-induced PARylation; compounds 30 min, then 10 mM hydrogen peroxide 15 min; read-out: HeLa_WT_IC50. The source says: The purpose of this cell-based assay is to measure the potency and selectivity of synthesized PARP inhibitors in suppressing hydrogen peroxide-induced PARylation in cells with and without PARP1 expression. Several cell lines were used in this assay. The human PARP1 knockout HEK-293T cell line (#ab266598) was purchased from Abcam, and its corresponding wide-type control is the human wild-type HEK-293T cell line (#ab255449). The HAP1 isogenic cell lines with and without the PARP1 gene (#HZGHC003943c006) were purchased from Horizon Discovery. HeLa cells (wide-type with PARP1 gene) were purchased from ATCC. Cells were cultured using complete medium containing 10% fetal bovine serum. One day before the assay, cells were seeded in 96-well plates at the density of 20,000 cells per well in 100 uL complete medium. Compounds were dissolved using DMSO and diluted to the working concentrations using complete medium. Cells were pre-treated with compounds for 30 min and then stimulated with 10 mM hydrogen peroxide for 15 min. After stimulation, cells were immediately fixed using ice-cold methanol for 20 min. After fixation, cells were washed using 1×PBST buffer for 3 times, 5 min each time, to eliminate residual methanol. Cells were blocked for 2 h at room temperature in blocking buffer (LI-COR Biosciences, #927-70001). Primary antibody was diluted in diluent buffer (LI-COR Biosciences, #927-75001, 1:200) at 50 uL per well. Cells were incubated with the primary antibody at 4° C. for 18 h. The wells were then washed using 1×PBST for 3 times, 5 min each time. IRDye® 680RD Goat anti-Mouse IgG (H+L) secondary antibody was diluted at 1/2000 using the diluent buffer and added at 100 μL per well. Secondary antibody incubation was for 1 h at room temperature. Cells were then washed using 1×PBST for 3 times, 5 min each time. The signal was detected and analyzed using LI-COR Odyssey DLx Imaging system. Data were collected and further processed using GraphPad Prism for IC50 estimation.
Turning to `CCNC(=O)c1ccc(N2CCN(Cc3cc(Cl)c4c(=O)n(C)c(=O)[nH]c4c3)CC2)c(C)n1` [Compound I-43, 5-(4-((5-Chloro-3-methyl-2,4-dioxo-1,2,3,4-tetrahydroquinazolin-7-yl)methyl)piperazin-1-yl)-N-ethyl-6-methylpicolinamide], the IC50 was no more than 10 nM.

On to `[2H]C([2H])([2H])NC(=O)c1ccc(N2CCN(Cc3ccc4c(=O)n(CC)c(=O)[nH]c4c3)CC2)c(C([2H])([2H])[2H])n1` [Compound I-44, 5-(4-((3-ethyl-2,4-dioxo-1,2,3,4-tetrahydroquinazolin-7-yl)methyl)piperazin-1-yl)-N,6-bis(methyl-d3)picolinamide], for which the IC50 was no more than 10 nM.

For `CCN1C(=O)Nc2c(F)c(CN3CCN(c4ccc(C(=O)NC5CC5)c(F)c4F)CC3)cc3ncnc1c23` [Compound I-90, N-cyclopropyl-4-(4-((3-ethyl-9-fluoro-2-oxo-2,3-dihydro-1H-pyrimido[4,5,6-de]quinazolin-8-yl)methyl)piperazin-1-yl)-2,3-difluorobenzamide], the IC50 is no more than 10 nM.

Turning to `CCN1C(=O)Nc2c(F)c(CN3CCN(c4ccc(C(=O)NC5(C#N)CC5)nc4C)CC3)cc3ncnc1c23` [Compound I-62, N-(1-cyanocyclopropyl)-5-(4-((3-ethyl-9-fluoro-2-oxo-2,3-dihydro-1H-pyrimido[4,5,6-de]quinazolin-8-yl)methyl)piperazin-1-yl)-6-methylpicolinamide], the IC50 was no more than 10 nM.

`CCN1C(=O)Nc2c(F)c(CN3CCN(c4ccc(C(=O)NC5(CC#N)CC5)cc4F)CC3)cc3ncnc1c23` [Compound I-94, N-(1-(cyanomethyl)cyclopropyl)-4-(4-((3-ethyl-9-fluoro-2-oxo-2,3-dihydro-1H-pyrimido[4,5,6-de]quinazolin-8-yl)methyl)piperazin-1-yl)-3-fluorobenzamide]: the IC50 was no more than 10 nM.

Turning to `CCN1C(=O)Nc2cc(CN3CCN(c4ccc(C(=O)NC)nc4C(F)(F)F)CC3)cc3ncnc1c23` [Compound I-18, 5-(4-((3-Ethyl-2-oxo-2,3-dihydro-1H-pyrimido[4,5,6-de]quinazolin-8-yl)methyl)piperazin-1-yl)-N-methyl-6-(trifluoromethyl)picolinamide], the IC50 was no more than 10 nM.

Consider `CCn1c(=O)[nH]c2cc(CN3CCN(c4ccc(C(=O)NC)nc4C)CC3)cc(C(F)F)c2c1=O` [Compound I-37, 5-(4-((5-(Difluoromethyl)-3-ethyl-2,4-dioxo-1,2,3,4-tetrahydroquinazolin-7-yl)methyl)piperazin-1-yl)-N,6-dimethylpicolinamide], for which the IC50 was no more than 10 nM.

With `CCN1C(=O)Nc2c(F)c(CN3CCN(c4ccc(C(=O)N[C@@H]5CCOC5)nc4C)CC3)cc3ncnc1c23` [Compound I-67, (R)-5-(4-((3-ethyl-9-fluoro-2-oxo-2,3-dihydro-1H-pyrimido[4,5,6-de]quinazolin-8-yl)methyl)piperazin-1-yl)-6-methyl-N-(tetrahydrofuran-3-yl)picolinamide], the IC50 is no more than 10 nM.

Turning to `CCN1C(=O)Nc2c(F)c(CN3CCN(c4ccc(C(=O)NOCC5CC5)nc4C)CC3)cc3ncnc1c23` [Compound I-58, N-(cyclopropylmethoxy)-5-(4-((3-ethyl-9-fluoro-2-oxo-2,3-dihydro-1H-pyrimido[4,5,6-de]quinazolin-8-yl)methyl)piperazin-1-yl)-6-methylpicolinamide], the IC50 was no more than 10 nM.

Turning to `CCn1c(=O)[nH]c2cc(CN3CCN(c4ccc(C(=O)NC)nc4F)CC3)ccc2c1=O` [Compound I-29, 5-(4-((3-Ethyl-2,4-dioxo-1,2,3,4-tetrahydroquinazolin-7-yl)methyl)piperazin-1-yl)-6-fluoro-N-methylpicolinamide], the IC50 was no more than 10 nM.

Take `CNC(=O)c1ccc(N2CCN(Cc3ccc4c(c3)[nH]c(=O)c3c4cnn3C)CC2)cn1` [Compound I-10, N-methyl-5-(4-((3-methyl-4-oxo-4,5-dihydro-3H-pyrazolo[3,4-c]quinolin-7-yl)methyl)piperazin-1-yl)picolinamide]: the IC50 lay within 10 to 100 nM.

Take `CCN1C(=O)Nc2c(F)c(CN3CCN(c4ccc(C(=O)N[C@H]5CCN(C)C5)nc4C)CC3)cc3ncnc1c23` [Compound I-78, (S)-5-(4-((3-ethyl-9-fluoro-2-oxo-2,3-dihydro-1H-pyrimido[4,5,6-de]quinazolin-8-yl)methyl)piperazin-1-yl)-6-methyl-N-(1-methylpyrrolidin-3-yl)picolinamide]: the IC50 is no more than 10 nM.

Take `CCN1C(=O)Nc2c(F)c(CN3CCN(c4ccc(C(=O)NC5CC5)cc4F)CC3)cc3ncnc1c23` [Compound I-86, N-cyclopropyl-4-(4-((3-ethyl-9-fluoro-2-oxo-2,3-dihydro-1H-pyrimido[4,5,6-de]quinazolin-8-yl)methyl)piperazin-1-yl)-3-fluorobenzamide]: the IC50 is 10 to 100 nM.

Regarding `CNC(=O)c1ccc(N2CCN(Cc3cc(C(F)F)c4c(=O)n(C)c(=O)[nH]c4c3)CC2)c(C)n1` [Compound I-47, 5-(4-((5-(Difluoromethyl)-3-methyl-2,4-dioxo-1,2,3,4-tetrahydroquinazolin-7-yl)methyl)piperazin-1-yl)-N,6-dimethylpicolinamide], the IC50 was no more than 10 nM.

For `CCN1C(=O)Nc2c(F)c(CN3CCN(c4ccc(C(=O)NC)nc4C)CC3)cc3ncnc1c23` [Compound I-35, 5-(4-((3-ethyl-9-fluoro-2-oxo-2,3-dihydro-1H-pyrimido[4,5,6-de]quinazolin-8-yl)methyl)piperazin-1-yl)-N,6-dimethylpicolinamide], the IC50 is no more than 10 nM.

For `CNC(=O)c1ccc(N2CCN(Cc3ncc4c5c(c(=O)[nH]c4c3F)CCC5)CC2)c(F)n1` [Compound I-27, 6-Fluoro-5-(4-((4-fluoro-6-oxo-6,7,8,9-tetrahydro-5H-cyclopenta[c][1,6]naphthyridin-3-yl)methyl)piperazin-1-yl)-N-methylpicolinamide], the IC50 was no more than 10 nM.

As for `CCn1c(=O)[nH]c2c(F)c(CN3CCN(c4ccc(C(=O)NC)nc4C)CC3)cc(CC#N)c2c1=O` [Compound I-42, 5-(4-((5-(Cyanomethyl)-3-ethyl-8-fluoro-2,4-dioxo-1,2,3,4-tetrahydroquinazolin-7-yl)methyl)piperazin-1-yl)-N,6-dimethylpicolinamide], the IC50 was no more than 10 nM.

As for `CCn1c(=O)[nH]c2cc(CN3CCN(c4ccc(C(=O)NC)nc4C)CC3)cc(F)c2c1=O` [Compound I-22, 5-(4-((3-ethyl-5-fluoro-2,4-dioxo-1,2,3,4-tetrahydroquinazolin-7-yl)methyl)piperazin-1-yl)-N,6-dimethylpicolinamide], the IC50 is no more than 10 nM.

Take `CNC(=O)c1ccc(N2CCN(Cc3cnc4c5c(c(=O)[nH]c4c3)CCC5)CC2)c(C(F)(F)F)n1` [Compound I-23, N-methyl-5-(4-((6-oxo-6,7,8,9-tetrahydro-5H-cyclopenta[c][1,5]naphthyridin-3-yl)methyl)piperazin-1-yl)-6-(trifluoromethyl)picolinamide]: the IC50 was no more than 10 nM.

With `CCn1c(=O)[nH]c2c(F)c(CN3CCN(c4ccc(C(=O)NC)nc4C)CC3)cc(CO)c2c1=O` [Compound I-41, 5-(4-((3-Ethyl-8-fluoro-5-(hydroxymethyl)-2,4-dioxo-1,2,3,4-tetrahydroquinazolin-7-yl)methyl)piperazin-1-yl)-N,6-dimethylpicolinamide], the IC50 was no more than 10 nM.

In the case of `CCN1C(=O)Nc2c(F)c(CN3CCN(c4ccc(C(=O)N[C@H]5CC[C@@H](C#N)CC5)nc4C)CC3)cc3ncnc1c23` [Compound I-74, N-((1s,4s)-4-cyanocyclohexyl)-5-(4-((3-ethyl-9-fluoro-2-oxo-2,3-dihydro-1H-pyrimido[4,5,6-de]quinazolin-8-yl)methyl)piperazin-1-yl)-6-methylpicolinamide], the IC50 fell in the range of 10 to 100 nM.

For the compound `CCN1C(=O)Nc2c(F)c(CN3CCN(c4ccc(C(=O)NC5(CC#N)CC5)c(F)c4F)CC3)cc3ncnc1c23` [Compound I-95, N-(1-(cyanomethyl)cyclopropyl)-4-(4-((3-ethyl-9-fluoro-2-oxo-2,3-dihydro-1H-pyrimido[4,5,6-de]quinazolin-8-yl)methyl)piperazin-1-yl)-2,3-difluorobenzamide], the IC50 fell in the range of 10 to 100 nM.

`CCN1C(=O)Nc2c(F)c(CN3CCN(c4ccc(C(=O)NC)nc4C)CC3)cc3c(C)nnc1c23` [Compound I-54, 5-(4-((9-Ethyl-6-fluoro-3-methyl-8-oxo-8,9-dihydro-7H-pyridazino[3,4,5-de]quinazolin-5-yl)methyl)piperazin-1-yl)-N,6-dimethylpicolinamide]: the IC50 was no more than 10 nM.

`CCN1C(=O)Nc2c(F)c(CN3CCN(c4ccc(C(=O)NC5CC5)nc4C)CC3)cc3ncnc1c23` [Compound I-55, N-cyclopropyl-5-(4-((3-ethyl-9-fluoro-2-oxo-2,3-dihydro-1H-pyrimido[4,5,6-de]quinazolin-8-yl)methyl)piperazin-1-yl)-6-methylpicolinamide]: the IC50 was no more than 10 nM.
